Data: PubChem BioAssay (NCI)
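How tested: cells in 96-well plates exposed to compound for 48 hours at five concentrations. GI50 = concentration required for 50% inhibition of growth. TGI marks complete inhibition of growth.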

How the values were obtained:
Assay in all cases: NCI anticancer screen, dose series, 48 h
[1] = tested on: HCC-2998 colon
[2] = tested on: OVCAR-3 ovarian
[3] = tested on: NCI-H522 lung
[4] = tested on: SK-OV-3 ovarian
[5] = tested on: OVCAR-4 ovarian
[6] = tested on: EKVX NSCLC
[7] = tested on: SNB-75 CNS
[8] = tested on: CCRF-CEM leukemia
[9] = tested on: HOP-92 NSCLC
[10] = tested on: HCT-15 colon

| Structure (SMILES) | GI50 [1] [µM] | TGI [1] [µM] | GI50 [2] [µM] | TGI [2] [µM] | GI50 [3] [µM] | TGI [3] [µM] | GI50 [4] [µM] | TGI [4] [µM] | GI50 [5] [µM] | TGI [5] [µM] | GI50 [6] [µM] | TGI [6] [µM] | GI50 [7] [µM] | TGI [7] [µM] | GI50 [8] [µM] | TGI [8] [µM] | GI50 [9] [µM] | TGI [9] [µM] | GI50 [10] [µM] | TGI [10] [µM] |
| --- | --- | --- | --- | --- | --- | --- | --- | --- | --- | --- | --- | --- | --- | --- | --- | --- | --- | --- | --- | --- |
| CCCCC[C@H]1C/C=C2/C(=O)C(Cl)=C[C@@H]2C/C=C\CCCC(=O)O1 | 0.475 | 0.855 | 0.366 | 1.26 | 0.335 | 0.755 | 0.907 | 2.68 | 0.735 | 3.83 | 0.56 | 1.37 | 1.76 | 6.09 | 0.113 | 2.93 | 0.587 | 1.38 | 0.284 | 0.895 |
| OCC1OC(n2cnc3c(NCc4ccccc4O)ncnc32)C(O)C1O (stereo not drawn) | 1.76 | 8.42 | 0.388 | 2.08 | 0.0939 | 1.54 | 0.627 | 26.1 | 0.294 | 8.14 | 1.03 | > 100 | 1.74 | 18.3 | 0.274 | 33.6 | 0.709 | 7.51 | 0.432 |  |
| C(=C\c1ccc(OCC2CO2)cc1)/C1=NCOC1 (stereo not drawn) | 7.43 | 22.6 | 7.87 | 29.1 | 3.13 | 13.1 | 8.92 | 25.5 | 15.4 | 31.9 | 19.1 | 58.4 | 16.6 | 31.6 | 2.89 | 13.3 | 1.41 | 13.2 | 5.89 | 21.3 |
| CN(C)C/C=C/C(=O)Nc1cc2c(Nc3cccc(Cl)c3F)ncnc2cc1OCCOC(F)F | 2.1 | 10.9 | 0.343 | 4 | 0.0289 | 2.04 | < 0.01 | 0.275 | 1.5 | 11.6 |  | 6.1 | 0.494 | 3.79 | 2.83 | 15.7 | 0.205 | 2.05 | 1.08 |  |
| O=C(CC1Sc2ccccc2NC1=O)NNc1ccc(F)cc1 (stereo not drawn) | 30.9 | > 100 | > 100 | > 100 | 9.39 | > 100 | > 100 | > 100 | > 100 | > 100 | > 100 | > 100 | 14.9 | > 100 | > 100 | > 100 | > 100 | > 100 | 6.76 | > 100 |
| Cc1ccc(NC2=CC(=O)C(=O)c3ccccc32)cc1 | 2.11 | 4.89 | 1.66 | 4.86 | 1.45 | 3.18 | 11.3 | 23.5 | 1.39 | 2.72 | 4 | 18.9 | 0.779 | 2.11 | 5.62 | > 100 | 5.71 | 20.2 | 1.49 | 3.91 |
| Cc1cc(OCc2nn(CN3CCN(C)CC3)c(=S)n2/N=C/c2ccc(F)cc2)ccc1Cl | 18.8 | 33.1 | 17.4 | 34.3 | 15.7 | 30.8 | 19.7 | 44.4 | 6.86 | 22 | 20.4 | 43 | 13.4 | 32.2 | 19.8 | 43.4 | 17.8 | 37.6 | 15.2 | 29.3 |
| N#CC(C#N)=C1CCC2C(=C(C#N)C#N)CCC12 (stereo not drawn) |  | > 100 |  | > 100 |  | > 100 |  | > 100 |  | > 100 |  | > 100 |  | > 100 |  | > 100 |  | > 100 |  | > 100 |
| O=c1[nH]c(=O)n(C2OC(CO)C(O)C2O)cc1F (stereo not drawn) | 0.0346 | 54.2 | 0.0231 | 10.9 | 0.349 | 30.6 |  | > 97.4 |  | 17.7 |  | > 93.8 |  | > 100 | 0.0369 | > 100 | 24.9 | > 100 | 0.0207 | > 72.5 |
| OCC1OC(n2cnc3c(NCc4ccco4)ncnc32)C(O)C1O (stereo not drawn) | 3.85 | 40 | 1.34 | 3.12 | 1.34 | 22 | 1.6 | 14.2 | 2.8 | 18.8 | 4.73 | 81.7 | 1.73 | > 28.1 | 0.43 | 5.4 | 0.442 | 5.1 | 0.524 | > 28.1 |
